{"source": "patent US20230321055A1", "about": "“PREVENTIVE TREATMENT OF MIGRAINE” (priority 2022, published 2023)", "key": {"[1]": {"test_system": "participants with CM and moderate to severe symptoms of depression", "experiment": "Same phase 3 study: analysis of participants with chronic migraine and moderate to severe symptoms of depression (PHQ-9 ≥10)", "format": "in vivo, human", "design": "MSQ v2.1 RFR, Change from baseline, mean / MSQ v2.1 RFP, Change from baseline, mean / MSQ v2.1 EF, Change from baseline, mean / MSQ v2.1 RFR, MMRM, LS mean change / MSQ v2.1 RFP, MMRM, LS mean change / MSQ v2.1 EF, MMRM, LS mean change / HIT-6, Change from baseline, mean / HIT-6, MMRM, LS mean change: scale not given here", "details": "60 mg QD", "source_text": "Depression is a common comorbidity in people with migraine and is a risk factor for transformation of EM to CM. Depressive symptoms predict increases in headache-related disability and poor health-related quality of life (HRQoL) in people with migraine. Thus, trial data analysis was used to evaluate the effect of atogepant in participants with CM and baseline symptoms of moderate to severe depression. Specifically, analysis of trial data evaluated the impact of atogepant on change in monthly migraine days, ≥50% and ≥75% responder rates, change in MSQ v2.1 domain scores, and PGIC in participants with CM and moderate to severe depression symptomology. PHQ-9 is a validated, screening and diagnostic tool designed to improve the recognition rate of depression and facilitates diagnosis and treatment. A cut-off score of ≥10 was used to identify participants with moderate or severe depressive symptoms, to determine eligibility and as a continuous outcome to measure changes in depression. As disclosed hereinabove, the MSQ v2.1 is a 14-item measure of health-related quality of life evaluating impacts attributed to migraine over the past 4 weeks and comprises three domains: Role Function-Restrictive (RFR), Role Function-Preventive (RFP), and Emotional Function (EF). PGIC is a single item used to measure the subject's impression of overall change in migraine since the first dose of study intervention. Findings for the atogepant 60 mg QD dose are presented herein. […] For the endpoint change from baseline in monthly migraine days and each MSQ v2.1 domain score, the comparison between treatment groups was analyzed using a restricted maximum likelihood-based mixed model for repeated measures (MMRM). Logistic regression models were used to analyze PGIC responder at week 12 and ≥50% or 75% responder rates across 12-week double-blind treatment period. ANCOVA model was used to analyze change from baseline in PHQ-9 score at week 12.\nAnalysis of trial data evaluated the impact of atogepant on headache day reduction, moderate/severe headache days, acute medication use day reduction, impacts of headache and migraine as evaluated by the HIT-6 and AIM-D, and symptoms of moderate to severe depression as measured by PHQ-9. A cut-off score of ≥10 was used to identify participants with moderate or severe depressive symptoms, to determine eligibility and as a continuous outcome to measure changes in depressive symptoms. Findings for the atogepant 60 mg QD dose are presented here. Similar results for the 30 BID dose (excluded for simplicity). For endpoints other than PHQ-9, the comparison between treatment groups were analyzed using a restricted maximum likelihood-based mixed model for repeated measures (MMRM). ANCOVA model was used to analyze PHQ-9 related endpoints."}, "[2]": {"details": "oral administration; cited from earlier work"}, "[3]": {"details": "across the 12-week treatment period, mITT, PHQ-9 ≥10 subgroup (n = 109)"}, "[4]": {"details": "mITT, PHQ-9 ≥10 subgroup (n = 109)"}, "[5]": {"details": "mITT, PHQ-9 ≥10 subgroup (n = 109), 12-week treatment period"}, "[6]": {"details": "week 12, mITT, PHQ-9 ≥10 subgroup (n = 109)"}}, "data": [{"smiles": "C[C@@H]1[C@H](c2c(F)ccc(F)c2F)C[C@H](NC(=O)c2cnc3c(c2)C[C@@]2(C3)C(=O)Nc3ncccc32)C(=O)N1CC(F)(F)F", "note": "[Atogepant, (S)—N—((3S,5S,6R)-6-methyl-2-oxo-1-(2,2,2-trifluoroethyl)-5-(2,3,6-trifluorophenyl)piperidin-3-yl)-2′-oxo-1′,2′,5,7-tetrahydrospiro[cyclopenta[b]pyridine-6,3′-pyrrolo[2,3-b]pyridine]-3-carboxamide]", "values": [{"measurement": "AIM-D PDA, Change from baseline, mean", "setting": "[1]; [3]", "value": "−16.09"}, {"measurement": "AIM-D PDA, LSMD vs placebo", "setting": "[1]; [3]", "value": "−5.91"}, {"measurement": "AIM-D PDA, MMRM, LS mean change", "setting": "[1]; [3]", "value": "−13.50"}, {"measurement": "AIM-D PI, Change from baseline, mean", "setting": "[1]; [3]", "value": "−13.84"}, {"measurement": "AIM-D PI, LSMD vs placebo", "setting": "[1]; [3]", "value": "−4.63"}, {"measurement": "AIM-D PI, MMRM, LS mean change", "setting": "[1]; [3]", "value": "−11.68"}, {"measurement": "AIM-D PDA, Months 1-3, mean", "setting": "[1]; [4]", "value": 22.29}, {"measurement": "AIM-D PI, Months 1-3, mean", "setting": "[1]; [4]", "value": 20.07}, {"measurement": "Monthly Acute Medication Use Days, Post-baseline (Month 1-3), mean", "setting": "[1]; [4]", "value": 9.51}, {"measurement": "Monthly Headache Days, Post-baseline (Month 1-3), mean", "setting": "[1]; [4]", "value": 15.24}, {"measurement": "Monthly Migraine Days, Post-baseline (Month 1-3), mean", "setting": "[1]; [4]", "value": 12.90}, {"measurement": "Monthly Moderate/Severe Headache Days, Post-baseline (Month 1-3), mean", "setting": "[1]; [4]", "value": 10.22}, {"measurement": "PHQ-9, Week 12, mean", "setting": "[1]; [4]", "value": 8.81}, {"measurement": "≥50% Responders, Odds ratio vs placebo", "setting": "[1]; [4]", "value": 3.70}, {"measurement": "≥75% Responders, Odds ratio vs placebo", "setting": "[1]; [4]", "value": 13.64}, {"measurement": "Monthly Acute Medication Use Days, Change from baseline, mean", "setting": "[1]; [5]", "value": "−7.52"}, {"measurement": "Monthly Acute Medication Use Days, LSMD vs placebo", "setting": "[1]; [5]", "value": "−3.53"}, {"measurement": "Monthly Acute Medication Use Days, MMRM, LS mean change", "setting": "[1]; [5]", "value": "−6.57"}, {"measurement": "Monthly Headache Days, Change from baseline, mean", "setting": "[1]; [5]", "value": "−6.94"}, {"measurement": "Monthly Headache Days, LSMD vs placebo", "setting": "[1]; [5]", "value": "−2.86"}, {"measurement": "Monthly Headache Days, MMRM, LS mean change", "setting": "[1]; [5]", "value": "−6.52"}, {"measurement": "Monthly Migraine Days, Change from baseline, mean", "setting": "[1]; [5]", "value": "−7.23"}, {"measurement": "Monthly Migraine Days, LSMD vs placebo", "setting": "[1]; [5]", "value": "−3.04"}, {"measurement": "Monthly Migraine Days, MMRM, LS mean change", "setting": "[1]; [5]", "value": "−6.71"}, {"measurement": "Monthly Moderate/Severe Headache Days, Change from baseline, mean", "setting": "[1]; [5]", "value": "−7.34"}, {"measurement": "Monthly Moderate/Severe Headache Days, LSMD vs placebo", "setting": "[1]; [5]", "value": "−2.68"}, {"measurement": "Monthly Moderate/Severe Headache Days, MMRM, LS mean change", "setting": "[1]; [5]", "value": "−6.77"}, {"measurement": "≥50% Responders, Odds ratio vs placebo", "setting": "[1]; mITT, PHQ-9 ≥10 subgroup (n = 109), listed as atogepant", "value": 3.7}, {"measurement": "PGIC much better or very much better, OR vs placebo", "setting": "[1]; week 12, PHQ-9 ≥10 subgroup", "value": 2.52}, {"measurement": "HIT-6, Change from baseline, mean", "setting": "[1]; [6]", "value": "−8.73"}, {"measurement": "HIT-6, LSMD vs placebo", "setting": "[1]; [6]", "value": "−3.18"}, {"measurement": "HIT-6, MMRM, LS mean change", "setting": "[1]; [6]", "value": "−8.37"}, {"measurement": "HIT-6, Post-baseline, mean", "setting": "[1]; [6]", "value": 57.68}, {"measurement": "MSQ v2.1 EF, Change from baseline, mean", "setting": "[1]; [6]", "value": 30.17}, {"measurement": "MSQ v2.1 EF, LSMD vs placebo", "setting": "[1]; [6]", "value": 9.24}, {"measurement": "MSQ v2.1 EF, MMRM, LS mean change", "setting": "[1]; [6]", "value": 28.19}, {"measurement": "MSQ v2.1 EF, Post-baseline, mean", "setting": "[1]; [6]", "value": 70.79}, {"measurement": "MSQ v2.1 RFP, Change from baseline, mean", "setting": "[1]; [6]", "value": 24.95}, {"measurement": "MSQ v2.1 RFP, LSMD vs placebo", "setting": "[1]; [6]", "value": 8.89}, {"measurement": "MSQ v2.1 RFP, MMRM, LS mean change", "setting": "[1]; [6]", "value": 22.91}, {"measurement": "MSQ v2.1 RFP, Post-baseline, mean", "setting": "[1]; [6]", "value": 73.71}, {"measurement": "MSQ v2.1 RFR, Change from baseline, mean", "setting": "[1]; [6]", "value": 28.04}, {"measurement": "MSQ v2.1 RFR, LSMD vs placebo", "setting": "[1]; [6]", "value": 8.77}, {"measurement": "MSQ v2.1 RFR, MMRM, LS mean change", "setting": "[1]; [6]", "value": 25.56}, {"measurement": "MSQ v2.1 RFR, Post-baseline, mean", "setting": "[1]; [6]", "value": 61.53}, {"measurement": "PHQ-9, ANCOVA, LS mean change", "setting": "[1]; [6]", "value": "−5.11"}, {"measurement": "PHQ-9, Change from baseline, mean", "setting": "[1]; [6]", "value": "−5.61"}, {"measurement": "PHQ-9, LSMD vs placebo", "setting": "[1]; [6]", "value": "−1.38"}, {"measurement": "half-life", "setting": "[2]", "value": "approximately 11 hours"}, {"measurement": "time to maximum plasma concentrations", "setting": "[2]", "value": "≤ 2", "unit": "h"}]}]}
